{"source": "patent US20200397796A1", "about": "“METHODS OF TREATMENT OF CANCER COMPRISING CHK1 INHIBITORS” (SIERRA ONCOLOGY, INC., priority 2018, published 2020)", "key": {"[1]": {"biological_target": "T1, Chk1 (Homo sapiens, UniProt O14757)", "T1 construct": "endogenous in cells", "T1 sequence (O14757 1-476)": "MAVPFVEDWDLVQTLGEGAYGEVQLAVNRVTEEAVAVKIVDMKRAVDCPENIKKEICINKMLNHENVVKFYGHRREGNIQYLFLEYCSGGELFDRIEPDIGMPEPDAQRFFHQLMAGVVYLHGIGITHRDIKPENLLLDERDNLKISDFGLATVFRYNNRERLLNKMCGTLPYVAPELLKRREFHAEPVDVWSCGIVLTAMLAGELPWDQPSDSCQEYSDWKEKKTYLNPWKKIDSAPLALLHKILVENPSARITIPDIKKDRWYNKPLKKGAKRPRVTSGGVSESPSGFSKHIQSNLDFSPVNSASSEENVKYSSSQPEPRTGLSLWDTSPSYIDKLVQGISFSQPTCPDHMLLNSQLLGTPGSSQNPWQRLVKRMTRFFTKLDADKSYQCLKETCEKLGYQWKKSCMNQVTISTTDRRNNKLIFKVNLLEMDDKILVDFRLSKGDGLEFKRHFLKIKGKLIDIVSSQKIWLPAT", "experiment": "In vitro genotoxic chemotherapy-induced Chk1 autophosphorylation, checkpoint arrest and cytotoxicity potentiation", "format": "cell-based"}, "[2]": {"tested_on": "HT29 human colon cancer", "experiment": "In vivo efficacy, HT29 xenograft model", "set-up": "species or system mouse", "conditions": "data not shown", "method": "(§1) A program of in vivo efficacy studies was performed to assess the activity of SRA737 in combination with genotoxic chemotherapy and targeted agents, and as monotherapy.\n(§2) One of these models also carried a MYCN amplification. A fourth HGSOC PDX model with partial resistance to PARPi was also sensitive to high dose SRA737 monotherapy."}, "[3]": {"tested_on": "Calu6 human (NSCLC)", "experiment": "In vivo efficacy, Calu6 xenograft model", "set-up": "species or system mouse", "conditions": "data not shown", "method": "as §1, §2"}, "[4]": {"tested_on": "KPC-1 pancreatic cancer", "experiment": "In vivo efficacy, KPC-1 model", "set-up": "species or system mouse", "conditions": "in combination with standard-dose gemcitabine; data not shown", "method": "as §1, §2"}, "[5]": {"tested_on": "patient-derived bladder carcinoma", "experiment": "In vivo efficacy, patient-derived bladder carcinoma model", "set-up": "species or system mouse", "conditions": "in combination with standard-dose gemcitabine; data not shown", "method": "as §1, §2"}, "[6]": {"tested_on": "OVCAR3 model of HGSOC", "experiment": "In vivo efficacy, OVCAR3 CDX model", "set-up": "species or system mouse", "conditions": "data not shown", "method": "as §1, §2"}, "[7]": {"tested_on": "mTmG", "experiment": "In vivo efficacy, mTmG syngeneic mouse model", "conditions": "in combination with a PD1/PD-L1 inhibitor; data not shown", "method": "as §1, §2"}, "[8]": {"tested_on": "MC38", "experiment": "In vivo efficacy, MC38 syngeneic mouse model", "conditions": "in combination with a PD1/PD-L1 inhibitor; data not shown", "method": "as §1, §2"}, "[9]": {"tested_on": "Eμ-Myc model of B-cell lymphoma", "experiment": "In vivo efficacy, Eμ-Myc model", "set-up": "species or system mouse", "conditions": "data not shown", "method": "as §1, §2"}, "[10]": {"tested_on": "MOLM-13 model of AML", "experiment": "In vivo efficacy, MOLM-13 model", "set-up": "species or system mouse", "conditions": "data not shown", "method": "as §1, §2"}, "[11]": {"experiment": "Single dose PK, rat", "format": "in vivo", "method": "(§3) The PK of SRA737 have been determined in the mouse, rat, dog and monkey following oral and IV administration (Table 3). […] An acceptable terminal elimination t1/2 was also observed in each species. […] The plasma protein binding of SRA737 at 1 and 10 μM was examined in mouse, minipig, monkey and human plasma using ultracentrifugation and in dog plasma (10 μM) using rapid equilibrium dialysis."}, "[12]": {"experiment": "Single dose PK, dog", "format": "in vivo", "method": "as §3"}, "[13]": {"experiment": "Plasma protein binding, ultracentrifugation, mouse", "format": "in vitro ADME", "conditions": "for Percentage Bound / Percentage Free: Mouse plasma", "method": "as §3"}, "[14]": {"tested_on": "human hepatocytes", "experiment": "Stability and metabolites in cryopreserved hepatocytes, human", "format": "in vitro ADME", "method": "(§4) The formation of SRA737-related metabolites was determined in cryopreserved hepatocytes from human, mouse, rat, dog, minipig and monkey samples after incubation with SRA737 at a nominal concentration of 10 μM for up to 4 hours. […] In the human hepatocyte preparation, approximately 67% of the parent remained after 4 hours of incubation compared to 75% and 7% in the rat and minipig preparations, respectively. Eight human SRA737 metabolites were observed. All SRA737 metabolites formed by human hepatocytes were also formed by monkey hepatocytes. Six metabolites were present at equal or greater abundance in the monkey."}, "[15]": {"tested_on": "minipig hepatocytes", "experiment": "Stability in cryopreserved hepatocytes, minipig", "format": "in vitro ADME", "conditions": "10 μM, after 4 hours of incubation", "method": "as §4"}, "[16]": {"experiment": "Excretion in urine and feces, mice", "format": "in vivo, mouse", "conditions": "24-hour collection", "method": "The excretion of SRA737 has been studied in mice and rats administered SRA737 at either 5 mg/kg IV or 10 mg/kg orally. Urine and feces were collected for a 24-hour period after dosing. In mice, renal excretion of intact SRA737 was consistently low (less than 10% of dose) after both oral and IV administration. Following IV administration of SRA737, less than 8% of the dose was recovered as intact drug in the feces while after oral administration this figure was less than 3%. Excretion of intact SRA737 was lower in the rat than in the mouse with <1% of dose excreted renally over 24 hours and less than 1.5% of dose excreted into the feces over 24 hours."}, "[17]": {"biological_target": "CYP 1A2 (Homo sapiens, UniProt P05177)", "sequence (P05177 whole entry)": "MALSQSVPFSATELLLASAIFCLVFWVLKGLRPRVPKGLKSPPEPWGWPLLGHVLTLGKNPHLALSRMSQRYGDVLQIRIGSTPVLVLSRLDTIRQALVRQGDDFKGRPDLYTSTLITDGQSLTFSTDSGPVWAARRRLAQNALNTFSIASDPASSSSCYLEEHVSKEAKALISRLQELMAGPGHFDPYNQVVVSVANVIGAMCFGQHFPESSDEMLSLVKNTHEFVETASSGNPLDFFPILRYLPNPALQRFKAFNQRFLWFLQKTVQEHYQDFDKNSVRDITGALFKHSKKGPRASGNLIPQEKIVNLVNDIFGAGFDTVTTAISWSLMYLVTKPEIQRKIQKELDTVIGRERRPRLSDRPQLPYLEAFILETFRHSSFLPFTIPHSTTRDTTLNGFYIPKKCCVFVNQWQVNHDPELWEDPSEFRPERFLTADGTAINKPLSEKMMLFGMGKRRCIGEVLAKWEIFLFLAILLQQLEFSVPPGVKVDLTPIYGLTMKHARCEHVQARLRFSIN", "experiment": "CYP inhibition, 1A2", "format": "in vitro ADME", "conditions": "highest concentration investigated"}, "[18]": {"biological_target": "CYP 2A6 (Homo sapiens, UniProt P11509)", "sequence (P11509 whole entry)": "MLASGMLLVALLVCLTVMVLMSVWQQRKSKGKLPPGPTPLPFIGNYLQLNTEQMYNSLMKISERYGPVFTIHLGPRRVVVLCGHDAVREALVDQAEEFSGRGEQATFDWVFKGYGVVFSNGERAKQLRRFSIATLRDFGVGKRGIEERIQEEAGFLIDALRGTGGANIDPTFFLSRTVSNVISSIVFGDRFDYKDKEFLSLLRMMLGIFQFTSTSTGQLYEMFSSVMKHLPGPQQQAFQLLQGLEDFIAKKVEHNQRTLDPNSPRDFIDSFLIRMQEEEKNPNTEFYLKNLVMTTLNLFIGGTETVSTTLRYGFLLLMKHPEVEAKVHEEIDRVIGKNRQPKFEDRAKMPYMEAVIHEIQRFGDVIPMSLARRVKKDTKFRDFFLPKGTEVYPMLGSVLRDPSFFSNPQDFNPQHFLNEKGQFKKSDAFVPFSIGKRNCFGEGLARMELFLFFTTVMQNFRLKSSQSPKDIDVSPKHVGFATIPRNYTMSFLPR", "experiment": "CYP inhibition, 2A6", "format": "in vitro ADME", "conditions": "highest concentration investigated"}, "[19]": {"biological_target": "CYP 2C19 (Homo sapiens, UniProt P33261)", "sequence (P33261 whole entry)": "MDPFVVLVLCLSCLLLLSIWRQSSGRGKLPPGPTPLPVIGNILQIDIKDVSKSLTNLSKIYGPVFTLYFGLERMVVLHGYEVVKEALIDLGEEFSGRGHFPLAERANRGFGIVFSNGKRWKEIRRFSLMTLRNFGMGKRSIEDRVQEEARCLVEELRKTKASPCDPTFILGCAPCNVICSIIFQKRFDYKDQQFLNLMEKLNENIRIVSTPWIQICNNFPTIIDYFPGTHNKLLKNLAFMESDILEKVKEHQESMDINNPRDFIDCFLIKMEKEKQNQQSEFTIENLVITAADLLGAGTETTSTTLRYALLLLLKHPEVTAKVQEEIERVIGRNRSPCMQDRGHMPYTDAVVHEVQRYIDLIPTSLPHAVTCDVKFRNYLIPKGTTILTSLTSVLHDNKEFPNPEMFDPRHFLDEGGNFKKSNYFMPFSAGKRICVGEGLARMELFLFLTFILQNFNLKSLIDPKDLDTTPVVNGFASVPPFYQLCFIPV", "experiment": "CYP inhibition, 2C19", "format": "in vitro ADME", "conditions": "highest concentration investigated"}, "[20]": {"conditions": "in combination with standard-dose gemcitabine"}, "[21]": {"conditions": "in vivo, Rat IV 5 mg/kg single dose"}, "[22]": {"conditions": "in vivo, Rat oral 10 mg/kg single dose"}, "[23]": {"conditions": "in vivo, Dog IV 1 mg/kg single dose"}, "[24]": {"conditions": "in vivo, Dog oral 5 mg/kg single dose"}}, "data": [{"smiles": "N#Cc1cnc(Nc2cc(NCC3CNCCO3)c(C(F)(F)F)cn2)cn1", "note": "(stereo not shown) [SRA737, 5-[[4-[[morpholin-2-yl]methylamino]-5-(trifluoromethyl)-2-pyridyl]amino]pyrazine-2-carbonitrile]", "values": [{"measurement": "cytotoxicity of genotoxic chemotherapeutic agents and targeted agents", "setting": "[1]", "value": "dose-dependent potentiation"}, {"measurement": "genotoxicity-induced checkpoint arrest", "setting": "[1]", "value": "dose-dependent inhibition"}, {"measurement": "genotoxic chemotherapy-induced Chk1 autophosphorylation", "setting": "[1]; data not shown", "value": "potently inhibited"}, {"measurement": "antitumor activity", "setting": "[2]; [20]", "value": "Significant, dose-dependent antitumor activity"}, {"measurement": "synergy", "setting": "[2]; with irinotecan", "value": "Synergy"}, {"measurement": "synergy", "setting": "[2]; with low-dose gemcitabine", "value": "Synergy"}, {"measurement": "antitumor activity", "setting": "[3]; [20]", "value": "Significant, dose-dependent antitumor activity"}, {"measurement": "synergy", "setting": "[3]; with gemcitabine and carboplatin", "value": "Synergy"}, {"measurement": "antitumor activity", "setting": "[4]", "value": "Significant, dose-dependent antitumor activity"}, {"measurement": "antitumor activity", "setting": "[5]", "value": "Significant, dose-dependent antitumor activity"}, {"measurement": "single agent efficacy", "setting": "[6]; single agent", "value": "single agent efficacy"}, {"measurement": "synergy", "setting": "[6]; with low-dose gemcitabine", "value": "Synergy"}, {"measurement": "antitumor activity", "setting": "[7]", "value": "Significant antitumor activity"}, {"measurement": "antitumor activity", "setting": "[8]", "value": "Significant antitumor activity"}, {"measurement": "single agent efficacy", "setting": "[9]", "value": "single agent efficacy"}, {"measurement": "single agent efficacy", "setting": "[10]", "value": "single agent efficacy"}, {"measurement": "Foral", "setting": "[11]; Rat oral 10 mg/kg single dose", "value": 42, "unit": "%"}, {"measurement": "AUC(0-t)", "setting": "[11]; [21]", "value": 1380, "unit": "ng·h/mL"}, {"measurement": "half-life", "setting": "[11]; [21]", "value": 1, "unit": "h"}, {"measurement": "AUC(0-t)", "setting": "[11]; [22]", "value": 1170, "unit": "ng·h/mL"}, {"measurement": "Cmax", "setting": "[11]; [22]", "value": 190, "unit": "ng/mL"}, {"measurement": "Tmax", "setting": "[11]; [22]", "value": 2, "unit": "h"}, {"measurement": "half-life", "setting": "[11]; [22]", "value": 4.6, "unit": "h"}, {"measurement": "Foral", "setting": "[12]; Dog oral 5 mg/kg single dose", "value": 86, "unit": "%"}, {"measurement": "AUC(0-t)", "setting": "[12]; [23]", "value": 200, "unit": "ng·h/mL"}, {"measurement": "half-life", "setting": "[12]; [23]", "value": 2.8, "unit": "h"}, {"measurement": "AUC(0-t)", "setting": "[12]; [24]", "value": 850, "unit": "ng·h/mL"}, {"measurement": "Cmax", "setting": "[12]; [24]", "value": 130, "unit": "ng/mL"}, {"measurement": "Tmax", "setting": "[12]; [24]", "value": "1 to 3", "unit": "h"}, {"measurement": "half-life", "setting": "[12]; [24]", "value": 3.5, "unit": "h"}, {"measurement": "Percentage Bound", "setting": "[13]; 1 μM", "value": 94.5, "unit": "%"}, {"measurement": "Percentage Free", "setting": "[13]; 1 μM", "value": 5.5, "unit": "%"}, {"measurement": "Percentage Bound", "setting": "[13]; 10 μM", "value": 93.4, "unit": "%"}, {"measurement": "Percentage Free", "setting": "[13]; 10 μM", "value": 6.6, "unit": "%"}, {"measurement": "fraction unbound", "setting": "[13]; mouse, plasma, summary of 1 and 10 μM", "value": 0.06}, {"measurement": "plasma protein binding", "setting": "[13]; mouse, summary of 1 and 10 μM", "value": "~94", "unit": "%"}, {"measurement": "human-specific metabolites", "setting": "[14]; compared with mouse, rat, dog, minipig and monkey hepatocytes", "value": "No human-specific metabolites"}, {"measurement": "number of human SRA737 metabolites observed", "setting": "[14]; human hepatocytes, 10 μM, up to 4 hours", "value": "Eight"}, {"measurement": "parent remained", "setting": "[14]; human hepatocytes, 10 μM, after 4 hours of incubation", "value": "approximately 67%"}, {"measurement": "parent remained", "setting": "[15]", "value": 7, "unit": "%"}, {"measurement": "dose recovered as intact drug in the feces", "setting": "[16]; IV 5 mg/kg", "value": "less than 8 % of the dose"}, {"measurement": "renal excretion of intact SRA737", "setting": "[16]; after both oral (10 mg/kg) and IV (5 mg/kg)", "value": "less than 10 % of dose"}, {"measurement": "dose recovered as intact drug in the feces", "setting": "[16]; oral 10 mg/kg", "value": "less than 3 % of the dose"}, {"measurement": "IC50", "setting": "[17]", "value": "10 to 50", "unit": "µM"}, {"measurement": "IC50", "setting": "[18]", "value": "10 to 50", "unit": "µM"}, {"measurement": "IC50", "setting": "[19]", "value": "10 to 50", "unit": "µM"}]}]}
